The subject of series [1] is primary human hepatocytes in micropatterned co-cultures (MPCCs).
Another series has as its system 3T3-J2 fibroblasts. The experiment in a line: Fibroblast density in MPCCs, live cell imaging of nuclei (Hoechst 33342). It counts as cell-based, murine. Conditions: metformin treated MPCCs, 4 weeks of culture.
In series [2] the test system is primary human hepatocytes in micropatterned co-cultures (MPCCs). Description: Hepatocyte island area (phase contrast) and polarization (CDCFDA bile canaliculi staining) in MPCCs. It counts as cell-based. Conditions: metformin treated versus non-starved control MPCCs.

In the case of `Clc1ccc(COC(Cn2ccnc2)c2ccc(Cl)cc2Cl)c(Cl)c1` (stereo not drawn) [miconazole], the “identified as toxic (albumin or urea below 50% of DMSO control)” value in series [1] was “toxic”. For the compound `C[C@]12C=CC(=O)C=C1CC[C@@H]1[C@@H]2C(=O)C[C@@]2(C)[C@H]1CC[C@]2(O)C(=O)CO` [prednisone], the “identified as toxic (albumin or urea below 50% of DMSO control)” value in series [1] is on record as “toxic”.

`Cc1c(C)c2c(c(C)c1O)CCC(C)(COc1ccc(CC3SC(=O)NC3=O)cc1)O2` (stereo not drawn) [troglitazone]: in series [1], the “TC50 values for albumin production, non-starved cells compared with starved cells” value is on record as “similar” and the “TC50 values for urea production, non-starved cells compared with starved cells” value is reported as “similar”. As to `CN(C)C(=N)N=C(N)N` [metformin], in the series on 3T3-J2 fibroblasts, the fibroblast numbers entry is on record as “did not change”. Besides, in series [2], the hepatocyte island area result is “not significantly higher” and the hepatocyte polarization entry was “not significantly higher”.

For `CN1C(C(=O)Nc2ccccn2)=C(O)c2ccccc2S1(=O)=O` [piroxicam], in series [1], the “TC50 values for albumin production, non-starved cells compared with starved cells” value is recorded as “similar” and the “TC50 values for urea production, non-starved cells compared with starved cells” value is recorded as “similar”.

For the origin of these results see patent US11407979B2, “Intermittent starvation techniques to prolong functional lifetime of liver cells in culture” (Colorado State University Research Foundation, priority 2017, dated 2022).
